Measured values reported in patent publication US20240057591A1, “ANTIMICROBIAL WET WIPES” (Kimberly-Clark Worldwide, Inc., priority 2021, published 2024).
Marks after values point to notes of the source that are not given here.

Tests used:
[1] = system: Burkholderia cepacia (ATCC 25416); assay: Reduction of bacterial load by adding CO2 in a pressurized vessel (whipped cream dispenser), plate count after 72 hr; type: cell-based; conditions: for Recovered Bacteria, Average CFU/mL, With CO2: 72 hr, 25° C., n = 3
Procedure: Burkholderia cepacia (ATCC 25416) was grown overnight in 40 mL trypticase soy broth in 250 mL bottle shaken at 100 RPM at 30° C. […] 100 mL of either solution were placed in a whipped cream dispenser (670 mL total volume container), and then different amounts of carbon dioxide (CO2) were injected into the container.
100 mL of each solution were then placed in a 150 mL sterile plastic bottle (untreated control). Both samples were placed on a wrist action shaker for 2 hr at 100 rpm at room temperature (25° C.), and then placed on an orbital shaker for 70 hr at 100 rpm at room temperature (25° C.). The total time each sample was at room temperature (25° C.) was 72 hr. After 72 hr, each sample was plated on trypticase soy agar to enumerate bacterial growth after contact period.

[2] = system: Burkholderia cepacia ATCC 25416; assay: Reduction of bacterial load by continuous addition of CO2, plate count after contact time; type: cell-based; conditions: n = 2
Procedure: Each microbe was grown in specified growth conditions (Table 7) using 40 mL of broth media in a sterile 250 mL bottle shaken at 100 RPM. Each microbe was subcultured from broth culture to an agar plate and incubated in specified growth conditions (Table 7). […] 20 mL of reverse osmosis water solution with bacteria was dispensed to a 25 mL hydrothermal synthesis autoclave reactor vessel (25 mL total volume vessel) attached to a continuous CO2 delivery system. The vessels were left connected to the CO2 delivery system at specific contact times at room temperature (25-27° C.). 20 mL of reverse osmosis water with bacteria and filter sterilized reverse osmosis water (no bacteria) were placed in a 150 mL sterile plastic bottle (untreated controls). The untreated controls were left for the same contact time at room temperature (25-27° C.) as CO2 treated vessels. Each microorganism was plated on specified agar media (Table 7) to enumerate bacteria after contact period. Tables 8-10 show the bacterial load reduction achieved after continuous addition of pressurized gas comprising CO2 to contaminated reverse osmosis water or a contaminated solution of reverse osmosis water and Triton X-100.

[3] = system: Candida albicans ATCC 10231; assay: Reduction of microorganism load by continuous addition of CO2, plate count after contact time; type: cell-based; conditions: 300 psi CO2 continuously, reverse osmosis water, n = 2
Procedure: (§1) Each microbe was grown in specified growth conditions (Table 7) using 40 mL of broth media in a sterile 250 mL bottle shaken at 100 RPM. Each microbe was subcultured from broth culture to an agar plate and incubated in specified growth conditions (Table 7). 100 μL of bacterial or fungal suspension matching the turbidity of a 0.5 or 1 MacFarland Standard were added to 100 mL of filter-sterilized reverse osmosis water (final concentration approximately 1×10^6 or 5×10^1 CFU/mL). 20 mL of reverse osmosis water solution with bacteria was dispensed to a 25 mL hydrothermal synthesis autoclave reactor vessel (25 mL total volume vessel) attached to a continuous CO2 delivery system. The vessels were left connected to the CO2 delivery system at specific contact times at room temperature (25-27° C.). 20 mL of reverse osmosis water with bacteria and filter sterilized reverse osmosis water (no bacteria) were placed in a 150 mL sterile plastic bottle (untreated controls). The untreated controls were left for the same contact time at room temperature (25-27° C.) as CO2 treated vessels. Each microorganism was plated on specified agar media (Table 7) to enumerate bacteria after contact period. Tables 8-10 show the bacterial load reduction achieved after continuous addition of pressurized gas comprising CO2 to contaminated reverse osmosis water or a contaminated solution of reverse osmosis water and Triton X-100.

[4] = system: Escherichia coli ATCC 8739; assay: as above; type: cell-based; conditions: 300 psi CO2 continuously, reverse osmosis water, n = 2
Procedure: as §1

[5] = system: Pseudomonas aeruginosa ATCC 9027; assay: as above; type: cell-based; conditions: 300 psi CO2 continuously, reverse osmosis water, n = 2
Procedure: as §1

[6] = system: Staphylococcus aureus ATCC 6538; assay: as above; type: cell-based; conditions: 300 psi CO2 continuously, reverse osmosis water, n = 2
Procedure: as §1

[7] = pH measurements of preservative free wet wipe formulation after addition of CO2 and exposure to 1 atm (FIG. 5); type: physicochemical
Procedure: FIG. 5 is an exemplary embodiment depicting a graph of pH measurements of 100 mL of preservative free wet wipe formulation after addition of 8.2 g of CO2, and subsequent exposure to 1 atm (20° C.) in accordance with the present disclosure.

O=C=O [CO2, carbon dioxide]
Recovered Bacteria, Average CFU/mL, With CO2 ([1]; 8.2 g of CO2 to 100 mL preservative-free wet wipe formulation, approximately 1 × 10^6 CFU/mL): <10 CFU/mL
Recovered Bacteria, Average CFU/mL, With CO2 ([1]; 8.2 g of CO2 to 100 mL reverse osmosis water, approximately 1 × 10^6 CFU/mL): 1.1 × 10^3 CFU/mL
Recovered Bacteria, Average CFU/mL, With CO2 ([1]; 8.2 g of CO2 to 100 mL reverse osmosis water, approximately 5 × 10^1 CFU/mL): <10 CFU/mL
Recovered Bacteria, Average CFU/mL, With CO2 ([1]; 16.0 g of CO2 to 100 mL reverse osmosis water, approximately 1 × 10^5 CFU/mL): <10 CFU/mL
Recovered Bacteria, Average CFU/mL, With CO2 ([1]; 23.7 g of CO2 to 100 mL reverse osmosis water, approximately 1 × 10^5 CFU/mL): <10 CFU/mL
Microbial growth compared to no added CO2 ([1]; pressurized gas comprising carbon dioxide added to contaminated preservative-free wet wipe formulation): greatly reduced microbial growth
Microbial growth compared to no added CO2 ([1]; pressurized gas comprising carbon dioxide added to contaminated water): greatly reduced microbial growth
Average Recovered CFU/mL, With CO2 ([2]; 100 psi CO2 continuously, reverse osmosis water and 0.2% (v/v) Triton X-100, approximately 1.0 × 10^4 inoculum, 15 minutes): 2.1 × 10^3 CFU/mL
Average Recovered CFU/mL, With CO2 ([2]; 100 psi CO2 continuously, reverse osmosis water and 0.2% (v/v) Triton X-100, approximately 1.0 × 10^4 inoculum, 30 minutes): 1.2 × 10^3 CFU/mL
Average Recovered CFU/mL, With CO2 ([2]; 100 psi CO2 continuously, reverse osmosis water and 0.2% (v/v) Triton X-100, approximately 1.0 × 10^4 inoculum, 60 minutes): 6.3 × 10^2 CFU/mL
Average Recovered CFU/mL (Standard Deviation), With CO2 ([2]; 300 psi CO2 continuously, 20 mL reverse osmosis water, 0.5 hours): 5.0 × 10^5 (1.0 × 10^5) CFU/mL
Average Recovered CFU/mL (Standard Deviation), With CO2 ([2]; 300 psi CO2 continuously, 20 mL reverse osmosis water, 1 hour): 4.5 × 10^5 (2.5 × 10^5) CFU/mL
Average Recovered CFU/mL (Standard Deviation), With CO2 ([2]; 300 psi CO2 continuously, 20 mL reverse osmosis water, 1.5 hours): 5.0 × 10^5 (2.0 × 10^5) CFU/mL
Average Recovered CFU/mL (Standard Deviation), With CO2 ([2]; 300 psi CO2 continuously, 20 mL reverse osmosis water, 2 hours): 3.1 × 10^4 (7.0 × 10^3) CFU/mL
Average Recovered CFU/mL (Standard Deviation), With CO2 ([2]; 300 psi CO2 continuously, 20 mL reverse osmosis water, 2.5 hours): 8.0 × 10^3 (2.0 × 10^3) CFU/mL
Average Recovered CFU/mL (Standard Deviation), With CO2 ([2]; 300 psi CO2 continuously, 20 mL reverse osmosis water, 3 hours): <1 (n/a) CFU/mL
Average Recovered CFU/mL (Standard Deviation), With CO2 ([2]; 300 psi CO2 continuously, 20 mL reverse osmosis water, 6 hours): <1 (n/a) CFU/mL
Average Recovered CFU/mL (Standard Deviation), With CO2 ([2]; 300 psi CO2 continuously, 20 mL reverse osmosis water, 24 hours): <1 (n/a) CFU/mL
Average Recovered CFU/mL (Standard Deviation), With CO2 ([2]; Table 9: 100 psi CO2 (approx. 0.231 mol/L), reverse osmosis water, 2 hours): 2.3 × 10^4 (1.0 × CFU/mL
Average Recovered CFU/mL (Standard Deviation), With CO2 ([2]; Table 9: 100 psi CO2 (approx. 0.231 mol/L), reverse osmosis water, 4 hours): 1.2 × 10^4 (4.0 × CFU/mL
Average Recovered CFU/mL (Standard Deviation), With CO2 ([2]; Table 9: 100 psi CO2 (approx. 0.231 mol/L), reverse osmosis water, 6 hours): 1.2 × 10^4 (3.5 × CFU/mL
Average Recovered CFU/mL (Standard Deviation), With CO2 ([2]; Table 9: 200 psi CO2 (approx. 0.463 mol/L), reverse osmosis water, 2 hours): 1.2 × 10^3 (1.5 × CFU/mL
Average Recovered CFU/mL (Standard Deviation), With CO2 ([2]; Table 9: 200 psi CO2 (approx. 0.463 mol/L), reverse osmosis water, 4 hours): 1.0 × 10^2 (1.0 × CFU/mL
Average Recovered CFU/mL (Standard Deviation), With CO2 ([2]; Table 9: 200 psi CO2 (approx. 0.463 mol/L), reverse osmosis water, 6 hours): 1.4 × 10^1 (<10) CFU/mL
Average Recovered CFU/mL (Standard Deviation), With CO2 ([2]; Table 9: 300 psi CO2 (approx. 0.694 mol/L), reverse osmosis water, 2 hours): 9.0 × 10^2 (1.0 × CFU/mL
Average Recovered CFU/mL (Standard Deviation), With CO2 ([2]; Table 9: 300 psi CO2 (approx. 0.694 mol/L), reverse osmosis water, 4 hours): 5.0 × 10^1 (5.0 × CFU/mL
Average Recovered CFU/mL (Standard Deviation), With CO2 ([2]; Table 9: 300 psi CO2 (approx. 0.694 mol/L), reverse osmosis water, 6 hours): <10 (n/a) CFU/mL
Average Recovered CFU/mL, With CO2 ([2]; Table 10: 300 psi CO2 continuously, reverse osmosis water, 2 Hours): 1.3 × 10^3 CFU/mL
Average Recovered CFU/mL, With CO2 ([2]; Table 10: 300 psi CO2 continuously, reverse osmosis water, 4 Hours): 2.5 × 10^1 CFU/mL
Average Recovered CFU/mL, With CO2 ([2]; Table 10: 300 psi CO2 continuously, reverse osmosis water, 6 Hours): <10 CFU/mL
Average Recovered CFU/mL, With CO2 ([3]; 2 Hours): 5.3 × 10^2 CFU/mL
Average Recovered CFU/mL, With CO2 ([3]; 4 Hours): 1.0 × 10^2 CFU/mL
Average Recovered CFU/mL, With CO2 ([3]; 6 Hours): <10 CFU/mL
Average Recovered CFU/mL, With CO2 ([4]; 2 Hours): 1.0 × 10^3 CFU/mL
Average Recovered CFU/mL, With CO2 ([4]; 4 Hours): 2.5 × 10^2 CFU/mL
Average Recovered CFU/mL, With CO2 ([4]; 6 Hours): <10 CFU/mL
Average Recovered CFU/mL, With CO2 ([5]; 2 Hours): 3.5 × 10^2 CFU/mL
Average Recovered CFU/mL, With CO2 ([5]; 4 Hours): <10 CFU/mL
Average Recovered CFU/mL, With CO2 ([5]; 6 Hours): <10 CFU/mL
Average Recovered CFU/mL, With CO2 ([6]; 2 Hours): 6.0 × 10^2 CFU/mL
Average Recovered CFU/mL, With CO2 ([6]; 4 Hours): 1.3 × 10^2 CFU/mL
Average Recovered CFU/mL, With CO2 ([6]; 6 Hours): <10 CFU/mL
Reduction of pH of wet wipe formulation ([7]; 100 mL preservative free wet wipe formulation after addition of 8.2 g of CO2 (FIG. 5)): approximately 0.20 pH units
Dissipation of solubilized CO2 from wet wipe formulation ([7]; after exposure to atmospheric conditions (1 atm, 20° C.; FIG. 5)): quickly dissipated
